Measured values taken from ChEMBL document CHEMBL5291721, “A preclinical secondary pharmacology resource illuminates target-adverse drug reaction associations of marketed drugs” (Nat Commun, 2023).

What was measured:
[1] = biological target: T1, 5-hydroxytryptamine receptor 2B (Homo sapiens, UniProt P41595); assay type: functional, cell-based
D(1A) dopamine receptor = D(1A) dopamine receptor (Homo sapiens, UniProt P21728); assay type: functional, cell-based
[2] = biological target: Sodium-dependent noradrenaline transporter (Homo sapiens, UniProt P23975)
Sequence of Sodium-dependent noradrenaline transporter (P23975 whole entry): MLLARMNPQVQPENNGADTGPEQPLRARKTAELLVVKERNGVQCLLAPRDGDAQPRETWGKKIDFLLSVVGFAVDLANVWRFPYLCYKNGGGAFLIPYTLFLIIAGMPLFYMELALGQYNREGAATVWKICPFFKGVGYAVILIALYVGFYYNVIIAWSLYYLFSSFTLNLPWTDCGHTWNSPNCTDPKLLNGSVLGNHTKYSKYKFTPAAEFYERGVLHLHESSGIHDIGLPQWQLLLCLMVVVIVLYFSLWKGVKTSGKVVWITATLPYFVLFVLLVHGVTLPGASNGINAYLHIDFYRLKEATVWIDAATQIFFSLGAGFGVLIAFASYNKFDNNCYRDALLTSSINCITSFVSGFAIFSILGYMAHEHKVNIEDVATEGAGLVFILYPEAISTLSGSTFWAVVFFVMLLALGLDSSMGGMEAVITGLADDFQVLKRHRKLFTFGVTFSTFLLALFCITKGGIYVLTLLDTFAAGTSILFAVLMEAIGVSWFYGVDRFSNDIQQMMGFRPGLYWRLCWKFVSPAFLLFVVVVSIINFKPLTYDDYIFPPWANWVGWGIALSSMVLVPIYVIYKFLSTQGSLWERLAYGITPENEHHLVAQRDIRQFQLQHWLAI

Mu-type opioid receptor [3] = biological target: T2, Mu-type opioid receptor (Homo sapiens, UniProt P35372); assay: biochemical; assay type: functional
T2 sequence (P35372 whole entry): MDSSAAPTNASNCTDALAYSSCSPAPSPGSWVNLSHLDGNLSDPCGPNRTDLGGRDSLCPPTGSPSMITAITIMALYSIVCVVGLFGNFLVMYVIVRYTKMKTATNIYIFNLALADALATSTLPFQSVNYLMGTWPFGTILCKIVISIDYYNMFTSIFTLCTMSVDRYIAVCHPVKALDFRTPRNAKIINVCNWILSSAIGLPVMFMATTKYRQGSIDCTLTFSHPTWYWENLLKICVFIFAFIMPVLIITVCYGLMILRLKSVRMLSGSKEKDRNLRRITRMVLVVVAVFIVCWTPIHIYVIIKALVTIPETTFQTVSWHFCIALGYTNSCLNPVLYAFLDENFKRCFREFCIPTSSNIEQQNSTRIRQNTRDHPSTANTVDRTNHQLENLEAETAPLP

[4] = biological target: T3, Gamma-aminobutyric acid receptor subunit alpha-1 (Rattus norvegicus, UniProt P62813); assay type: functional
T3 sequence (P62813 whole entry): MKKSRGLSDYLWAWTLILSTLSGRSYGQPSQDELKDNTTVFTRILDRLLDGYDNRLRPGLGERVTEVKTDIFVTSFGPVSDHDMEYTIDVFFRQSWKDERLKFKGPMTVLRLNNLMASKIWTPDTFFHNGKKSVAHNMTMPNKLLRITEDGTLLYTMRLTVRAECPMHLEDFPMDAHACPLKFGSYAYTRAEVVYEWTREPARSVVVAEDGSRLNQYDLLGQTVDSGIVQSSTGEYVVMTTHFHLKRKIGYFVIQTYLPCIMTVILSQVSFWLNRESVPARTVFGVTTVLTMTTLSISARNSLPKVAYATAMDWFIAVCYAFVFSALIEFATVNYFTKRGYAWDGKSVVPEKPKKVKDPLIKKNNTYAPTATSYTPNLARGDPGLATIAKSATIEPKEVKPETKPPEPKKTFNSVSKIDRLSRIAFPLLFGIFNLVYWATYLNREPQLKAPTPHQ

[5] = biological target: T3, Gamma-aminobutyric acid receptor subunit alpha-1
[6] = biological target: Glutamate receptor ionotropic, NMDA 1 (Rattus norvegicus, UniProt P35439)
Mu-type opioid receptor [7] = biological target: T2, Mu-type opioid receptor
[8] = biological target: Neuronal acetylcholine receptor subunit alpha-4 (Homo sapiens, UniProt P43681)
[9] = biological target: T1, 5-hydroxytryptamine receptor 2B; assay type: functional, cell-based; remark: listed apart in the source
Cannabinoid receptor 1 = Cannabinoid receptor 1 (Homo sapiens, UniProt P21554)
D(3) dopamine receptor = D(3) dopamine receptor (Homo sapiens, UniProt P35462)
Sequence of D(3) dopamine receptor (P35462 whole entry): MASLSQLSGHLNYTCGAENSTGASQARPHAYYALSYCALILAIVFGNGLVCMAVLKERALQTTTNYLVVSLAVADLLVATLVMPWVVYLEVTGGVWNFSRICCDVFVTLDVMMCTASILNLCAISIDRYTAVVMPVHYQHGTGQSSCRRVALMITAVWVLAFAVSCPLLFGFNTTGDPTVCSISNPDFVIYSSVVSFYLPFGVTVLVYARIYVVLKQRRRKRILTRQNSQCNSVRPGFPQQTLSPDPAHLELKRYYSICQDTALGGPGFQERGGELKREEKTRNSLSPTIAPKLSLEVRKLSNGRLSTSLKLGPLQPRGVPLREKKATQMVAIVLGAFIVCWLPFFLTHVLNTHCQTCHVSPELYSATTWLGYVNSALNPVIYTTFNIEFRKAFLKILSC

[10] = biological target: Kappa-type opioid receptor (Homo sapiens, UniProt P41145)
Sequence of Kappa-type opioid receptor (P41145 whole entry): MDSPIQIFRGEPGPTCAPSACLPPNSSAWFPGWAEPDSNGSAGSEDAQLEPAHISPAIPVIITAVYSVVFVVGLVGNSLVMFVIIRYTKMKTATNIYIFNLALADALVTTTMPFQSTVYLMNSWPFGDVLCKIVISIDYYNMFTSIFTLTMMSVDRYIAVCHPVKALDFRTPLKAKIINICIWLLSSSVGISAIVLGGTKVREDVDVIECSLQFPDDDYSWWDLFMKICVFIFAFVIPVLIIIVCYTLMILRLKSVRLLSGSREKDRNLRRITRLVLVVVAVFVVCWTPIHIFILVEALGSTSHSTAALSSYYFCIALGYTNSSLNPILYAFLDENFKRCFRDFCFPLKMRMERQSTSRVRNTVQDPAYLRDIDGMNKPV

[11] = biological target: T4, Muscarinic acetylcholine receptor M4 (Homo sapiens, UniProt P08173)
T4 sequence (P08173 whole entry): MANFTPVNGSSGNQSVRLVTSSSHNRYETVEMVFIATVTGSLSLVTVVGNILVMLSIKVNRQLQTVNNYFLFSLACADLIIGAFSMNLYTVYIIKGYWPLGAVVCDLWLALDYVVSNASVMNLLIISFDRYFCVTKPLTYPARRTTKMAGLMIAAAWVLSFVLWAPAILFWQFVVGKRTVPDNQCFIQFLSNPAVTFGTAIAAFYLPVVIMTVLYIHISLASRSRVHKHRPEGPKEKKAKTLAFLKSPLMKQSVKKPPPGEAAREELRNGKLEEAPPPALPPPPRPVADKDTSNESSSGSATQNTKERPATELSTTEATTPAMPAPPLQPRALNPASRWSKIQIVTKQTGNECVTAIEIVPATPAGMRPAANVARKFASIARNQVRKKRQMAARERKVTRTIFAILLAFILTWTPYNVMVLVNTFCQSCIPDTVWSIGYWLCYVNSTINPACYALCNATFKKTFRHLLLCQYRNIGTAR

[12] = biological target: T5, Muscarinic acetylcholine receptor M5 (Homo sapiens, UniProt P08912)
T5 sequence (P08912 whole entry): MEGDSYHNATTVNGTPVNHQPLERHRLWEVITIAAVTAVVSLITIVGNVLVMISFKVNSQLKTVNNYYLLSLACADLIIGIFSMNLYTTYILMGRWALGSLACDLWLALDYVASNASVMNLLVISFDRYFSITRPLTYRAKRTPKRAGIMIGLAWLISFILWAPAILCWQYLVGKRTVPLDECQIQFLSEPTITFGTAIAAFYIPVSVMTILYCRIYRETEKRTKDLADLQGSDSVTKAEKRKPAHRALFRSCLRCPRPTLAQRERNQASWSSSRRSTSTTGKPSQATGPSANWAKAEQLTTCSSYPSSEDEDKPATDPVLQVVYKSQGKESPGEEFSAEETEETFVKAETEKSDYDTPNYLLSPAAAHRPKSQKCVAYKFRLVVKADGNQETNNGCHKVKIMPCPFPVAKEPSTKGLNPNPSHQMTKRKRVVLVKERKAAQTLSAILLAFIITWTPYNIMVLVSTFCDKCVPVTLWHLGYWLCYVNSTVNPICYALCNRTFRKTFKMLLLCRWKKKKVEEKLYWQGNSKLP

Acetylcholinesterase [13] = biological target: T6, Acetylcholinesterase (Homo sapiens, UniProt P22303); assay type: functional
T6 sequence (P22303 whole entry): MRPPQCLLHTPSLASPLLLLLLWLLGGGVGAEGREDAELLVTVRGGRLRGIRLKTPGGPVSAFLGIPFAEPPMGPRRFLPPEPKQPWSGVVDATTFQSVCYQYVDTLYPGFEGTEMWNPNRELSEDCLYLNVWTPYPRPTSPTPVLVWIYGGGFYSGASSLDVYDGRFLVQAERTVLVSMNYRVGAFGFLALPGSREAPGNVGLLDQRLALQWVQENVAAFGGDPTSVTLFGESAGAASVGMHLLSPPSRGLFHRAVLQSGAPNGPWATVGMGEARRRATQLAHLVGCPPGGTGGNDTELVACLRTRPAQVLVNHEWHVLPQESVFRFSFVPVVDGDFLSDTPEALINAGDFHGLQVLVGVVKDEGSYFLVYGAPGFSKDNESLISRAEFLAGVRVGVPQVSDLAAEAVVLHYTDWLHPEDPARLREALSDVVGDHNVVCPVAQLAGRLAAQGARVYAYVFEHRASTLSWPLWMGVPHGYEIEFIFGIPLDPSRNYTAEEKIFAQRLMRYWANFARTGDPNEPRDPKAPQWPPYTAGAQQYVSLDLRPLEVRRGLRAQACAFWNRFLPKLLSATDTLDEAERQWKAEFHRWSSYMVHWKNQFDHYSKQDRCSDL

Bile salt export pump = Bile salt export pump (Homo sapiens, UniProt O95342); assay type: functional
Acetylcholinesterase [14] = biological target: T6, Acetylcholinesterase; assay type: functional; remark: listed apart in the source
[15] = biological target: 5-hydroxytryptamine receptor 2A (Homo sapiens, UniProt P28223); assay type: functional, cell-based
[16] = biological target: Voltage-gated inwardly rectifying potassium channel KCNH2 (Homo sapiens, UniProt Q12809); assay type: functional; conditions: read-out: AC50
Sequence of Voltage-gated inwardly rectifying potassium channel KCNH2 (Q12809 whole entry): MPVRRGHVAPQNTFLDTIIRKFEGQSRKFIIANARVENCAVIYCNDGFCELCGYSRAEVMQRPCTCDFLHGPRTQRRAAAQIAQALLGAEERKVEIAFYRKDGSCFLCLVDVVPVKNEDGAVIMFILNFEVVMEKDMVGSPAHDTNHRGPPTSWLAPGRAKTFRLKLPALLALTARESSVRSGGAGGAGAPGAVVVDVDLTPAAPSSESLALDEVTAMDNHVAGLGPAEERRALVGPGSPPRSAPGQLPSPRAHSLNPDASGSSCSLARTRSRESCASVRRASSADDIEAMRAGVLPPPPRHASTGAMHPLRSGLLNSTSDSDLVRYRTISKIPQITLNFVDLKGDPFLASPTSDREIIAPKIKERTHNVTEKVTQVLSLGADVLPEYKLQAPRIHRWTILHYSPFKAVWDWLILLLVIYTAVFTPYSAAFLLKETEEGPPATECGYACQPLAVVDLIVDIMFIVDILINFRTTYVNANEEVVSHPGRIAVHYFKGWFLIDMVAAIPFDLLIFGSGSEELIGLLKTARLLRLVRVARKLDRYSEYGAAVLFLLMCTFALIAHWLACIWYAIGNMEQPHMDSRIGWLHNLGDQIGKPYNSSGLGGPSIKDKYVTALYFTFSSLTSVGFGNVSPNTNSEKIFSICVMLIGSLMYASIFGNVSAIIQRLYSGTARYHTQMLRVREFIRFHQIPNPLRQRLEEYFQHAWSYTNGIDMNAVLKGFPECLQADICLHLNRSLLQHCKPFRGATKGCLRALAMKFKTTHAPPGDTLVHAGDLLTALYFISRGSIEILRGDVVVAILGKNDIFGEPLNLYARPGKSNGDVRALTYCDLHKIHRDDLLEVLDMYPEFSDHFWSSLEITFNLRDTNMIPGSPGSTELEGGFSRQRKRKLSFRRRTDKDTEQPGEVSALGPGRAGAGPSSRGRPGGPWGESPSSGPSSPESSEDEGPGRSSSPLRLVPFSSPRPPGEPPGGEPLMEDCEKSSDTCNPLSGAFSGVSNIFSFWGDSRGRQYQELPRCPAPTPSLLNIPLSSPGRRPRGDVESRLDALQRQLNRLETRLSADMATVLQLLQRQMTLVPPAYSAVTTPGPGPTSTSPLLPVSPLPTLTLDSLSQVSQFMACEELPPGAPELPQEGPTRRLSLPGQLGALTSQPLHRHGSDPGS

[17] = biological target: T7, Alpha-2C adrenergic receptor (Homo sapiens, UniProt P18825); assay type: functional
T7 sequence (P18825 whole entry): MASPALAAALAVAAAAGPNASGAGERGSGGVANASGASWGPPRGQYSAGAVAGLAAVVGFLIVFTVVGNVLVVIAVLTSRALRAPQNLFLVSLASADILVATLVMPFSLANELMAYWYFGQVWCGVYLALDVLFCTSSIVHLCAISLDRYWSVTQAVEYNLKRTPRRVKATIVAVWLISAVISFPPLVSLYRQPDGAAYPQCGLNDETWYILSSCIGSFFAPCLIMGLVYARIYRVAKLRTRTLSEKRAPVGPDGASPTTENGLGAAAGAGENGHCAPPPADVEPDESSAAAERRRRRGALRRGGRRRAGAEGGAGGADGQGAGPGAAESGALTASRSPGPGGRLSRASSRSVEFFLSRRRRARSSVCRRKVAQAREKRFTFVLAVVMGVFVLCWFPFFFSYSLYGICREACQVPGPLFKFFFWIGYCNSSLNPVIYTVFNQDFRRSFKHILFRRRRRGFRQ
Also: assay procedure not described here.

T1 sequence (P41595 whole entry): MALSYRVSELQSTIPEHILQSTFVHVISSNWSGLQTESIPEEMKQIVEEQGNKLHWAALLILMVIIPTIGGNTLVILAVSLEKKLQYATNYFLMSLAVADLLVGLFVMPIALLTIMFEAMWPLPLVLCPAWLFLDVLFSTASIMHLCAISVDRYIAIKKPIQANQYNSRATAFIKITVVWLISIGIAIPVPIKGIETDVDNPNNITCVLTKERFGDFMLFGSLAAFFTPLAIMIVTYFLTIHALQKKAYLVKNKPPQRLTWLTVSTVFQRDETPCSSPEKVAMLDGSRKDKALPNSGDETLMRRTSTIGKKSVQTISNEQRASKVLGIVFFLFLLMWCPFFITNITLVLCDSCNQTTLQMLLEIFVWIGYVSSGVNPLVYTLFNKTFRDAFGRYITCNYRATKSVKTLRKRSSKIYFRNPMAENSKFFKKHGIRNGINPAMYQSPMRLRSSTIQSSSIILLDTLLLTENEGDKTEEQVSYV
Sequence of D(1A) dopamine receptor (P21728 whole entry): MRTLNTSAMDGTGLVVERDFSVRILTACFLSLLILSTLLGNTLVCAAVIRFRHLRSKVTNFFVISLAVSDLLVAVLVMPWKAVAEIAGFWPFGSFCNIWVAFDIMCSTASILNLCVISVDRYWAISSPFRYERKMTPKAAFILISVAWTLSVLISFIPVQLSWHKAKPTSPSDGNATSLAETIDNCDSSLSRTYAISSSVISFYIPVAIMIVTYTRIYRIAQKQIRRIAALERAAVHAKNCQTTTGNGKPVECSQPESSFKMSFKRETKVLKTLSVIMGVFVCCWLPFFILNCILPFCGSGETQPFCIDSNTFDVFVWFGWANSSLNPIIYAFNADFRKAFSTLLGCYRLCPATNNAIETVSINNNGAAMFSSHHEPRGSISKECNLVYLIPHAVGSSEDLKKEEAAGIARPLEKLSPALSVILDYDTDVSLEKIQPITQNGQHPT

O=C1CC2(CCCC2)CC(=O)N1CCCCN1CCN(c2ncccn2)CC1 [BUSPIRONE]
AC50 [1]: > 10 µM | AC50 (D(1A) dopamine receptor): > 10 µM | AC50 [2]: > 30 µM | AC50 (Mu-type opioid receptor [3]): > 30 µM | AC50 [4]: > 10 µM | AC50 [5]: > 10 µM | AC50 [6]: > 10 µM | AC50 (Mu-type opioid receptor [7]): > 30 µM | AC50 [8]: > 10 µM | AC50 [9]: 7.37 µM | AC50 (Cannabinoid receptor 1): 17.5 µM | AC50 (D(3) dopamine receptor): 0.048 µM | AC50 [10]: > 10 µM

C[N+]1(C)[C@@H]2C[C@@H](OC(=O)C(O)(c3cccs3)c3cccs3)C[C@H]1[C@@H]1O[C@@H]12 [TIOTROPIUM BROMIDE]
AC50 [11]: 0.0003 µM | AC50 [12]: 0.0015 µM

CCN(CC)C(=S)SSC(=S)N(CC)CC
AC50 (Acetylcholinesterase [13]): 14.2 µM

Nc1cccc2c1CN(C1CCC(=O)NC1=O)C2=O (configuration not stated) [LENALIDOMIDE]
AC50 (Bile salt export pump): > 300 µM

NC(=O)OC[C@@H]1[C@H](NC(=O)/C(=N\OCC(=O)O)c2csc(N)n2)C(=O)N1S(=O)(=O)O [CARUMONAM]
AC50 (Acetylcholinesterase [14]): > 500 µM

CCN(c1cc(-c2ccc(CN3CCOCC3)cc2)cc(C(=O)NCc2c(C)cc(C)[nH]c2=O)c1C)C1CCOCC1 [TAZEMETOSTAT]
AC50 [15]: > 30 µM | AC50 (Acetylcholinesterase [14]): > 30 µM

CC(=O)[C@H]1CC[C@H]2[C@@H]3CCC4=CC(=O)CC[C@]4(C)[C@H]3CC[C@]12C [PROGESTERONE]
AC50 (Acetylcholinesterase [13]): > 30 µM

CCCC(=O)Nc1ncnc2c1ncn2[C@@H]1O[C@@H]2COP(=O)(O)O[C@H]2[C@H]1OC(=O)CCC [BUCLADESINE]
AC50 (Acetylcholinesterase [13]): > 30 µM

NCCCC[C@H](N[C@@H](CCc1ccccc1)C(=O)O)C(=O)N1CCC[C@H]1C(=O)O [LISINOPRIL ANHYDROUS]
AC50 (Acetylcholinesterase [13]): > 30 µM

C[N+]1(C)[C@@H]2CC[C@H]1C[C@@H](OC(=O)C(O)c1ccccc1)C2 (some centres not stated) [METHYLHOMATROPINE]
AC50 [16]: > 30 µM

CN1CCN2c3ccccc3Cc3ccccc3C2C1 (configuration not stated) [MIANSERIN]
AC50 (Acetylcholinesterase [13]): > 30 µM | AC50 [17]: 0.05 µM

CC/C(=C(/CC)c1ccc(O)cc1)c1ccc(O)cc1 [DIETHYLSTILBESTROL]
AC50 (Acetylcholinesterase [13]): > 30 µM
